According to the NIST ThermoML archive (doi:10.1021/je100851w):

Assay: xn = mol fraction of the nth substance listed
Conditions: Vibrating tube method

S [hydrogen sulfide] + CCC
Conditions	mass density [kg/m3]
333.22 K, 2048 kPa, Gas, x1 = 0.2227	40
333.22 K, 2176 kPa, Gas, x1 = 0.2227	43.6
333.22 K, 2300 kPa, Gas, x1 = 0.2227	47.2
333.22 K, 2398 kPa, Gas, x1 = 0.2227	50.2
333.22 K, 2551 kPa, Gas, x1 = 0.2227	55.6
333.22 K, 2630 kPa, Gas, x1 = 0.2227	59.1
333.22 K, 2722 kPa, Gas, x1 = 0.2227	62.4
333.22 K, 2778 kPa, Gas, x1 = 0.2227	65.4
333.22 K, 3571 kPa, Liquid, x1 = 0.2227	438.6
333.22 K, 3861 kPa, Liquid, x1 = 0.2227	441.9
333.22 K, 4197 kPa, Liquid, x1 = 0.2227	445.2
333.22 K, 4915 kPa, Liquid, x1 = 0.2227	450.2
333.22 K, 5323 kPa, Liquid, x1 = 0.2227	453.4
333.22 K, 5731 kPa, Liquid, x1 = 0.2227	456.4
333.22 K, 6177 kPa, Liquid, x1 = 0.2227	459.5
333.22 K, 6686 kPa, Liquid, x1 = 0.2227	462.8
333.22 K, 7239 kPa, Liquid, x1 = 0.2227	466.1
333.22 K, 7781 kPa, Liquid, x1 = 0.2227	469.2
333.22 K, 8351 kPa, Liquid, x1 = 0.2227	472.3
333.22 K, 8992 kPa, Liquid, x1 = 0.2227	475.5
333.22 K, 9907 kPa, Liquid, x1 = 0.2227	479.8
333.22 K, 10643 kPa, Liquid, x1 = 0.2227	482.8
333.22 K, 11360 kPa, Liquid, x1 = 0.2227	485.8
333.22 K, 12135 kPa, Liquid, x1 = 0.2227	488.8
333.22 K, 12959 kPa, Liquid, x1 = 0.2227	491.9
333.22 K, 13811 kPa, Liquid, x1 = 0.2227	495
333.22 K, 14817 kPa, Liquid, x1 = 0.2227	498.4
333.22 K, 15868 kPa, Liquid, x1 = 0.2227	501.8
333.22 K, 16856 kPa, Liquid, x1 = 0.2227	504.8
333.22 K, 17893 kPa, Liquid, x1 = 0.2227	507.8
333.22 K, 18975 kPa, Liquid, x1 = 0.2227	510.8
333.22 K, 20100 kPa, Liquid, x1 = 0.2227	513.8
333.22 K, 21435 kPa, Liquid, x1 = 0.2227	517.2
333.22 K, 22830 kPa, Liquid, x1 = 0.2227	520.5
333.22 K, 24120 kPa, Liquid, x1 = 0.2227	523.5
333.22 K, 25466 kPa, Liquid, x1 = 0.2227	526.5
333.22 K, 26959 kPa, Liquid, x1 = 0.2227	529.7
333.22 K, 28465 kPa, Liquid, x1 = 0.2227	532.7
333.22 K, 30160 kPa, Liquid, x1 = 0.2227	536
333.22 K, 31961 kPa, Liquid, x1 = 0.2227	539.4
333.22 K, 33791 kPa, Liquid, x1 = 0.2227	542.6
333.22 K, 35752 kPa, Liquid, x1 = 0.2227	546
333.22 K, 37781 kPa, Liquid, x1 = 0.2227	549.3
333.22 K, 39778 kPa, Liquid, x1 = 0.2227	552.5
363.24 K, 9 kPa, Fluid (supercritical or subcritical phases), x1 = 0.2691	0.1
363.24 K, 313 kPa, Fluid (supercritical or subcritical phases), x1 = 0.2691	4.4
363.24 K, 596 kPa, Fluid (supercritical or subcritical phases), x1 = 0.2691	8.6
363.24 K, 842 kPa, Fluid (supercritical or subcritical phases), x1 = 0.2691	12.3
363.24 K, 1110 kPa, Fluid (supercritical or subcritical phases), x1 = 0.2691	16.6
363.24 K, 1358 kPa, Fluid (supercritical or subcritical phases), x1 = 0.2691	20.8
363.24 K, 1602 kPa, Fluid (supercritical or subcritical phases), x1 = 0.2691	25
363.24 K, 1810 kPa, Fluid (supercritical or subcritical phases), x1 = 0.2691	28.7
363.24 K, 2014 kPa, Fluid (supercritical or subcritical phases), x1 = 0.2691	32.7
363.24 K, 2204 kPa, Fluid (supercritical or subcritical phases), x1 = 0.2691	36.6
363.24 K, 2401 kPa, Fluid (supercritical or subcritical phases), x1 = 0.2691	40.6
363.24 K, 2576 kPa, Fluid (supercritical or subcritical phases), x1 = 0.2691	44.4
363.24 K, 2742 kPa, Fluid (supercritical or subcritical phases), x1 = 0.2691	48.3
363.24 K, 2905 kPa, Fluid (supercritical or subcritical phases), x1 = 0.2691	52.3
363.24 K, 3058 kPa, Fluid (supercritical or subcritical phases), x1 = 0.2691	56.2
363.24 K, 3211 kPa, Fluid (supercritical or subcritical phases), x1 = 0.2691	60.3
363.24 K, 3358 kPa, Fluid (supercritical or subcritical phases), x1 = 0.2691	64.4
363.24 K, 3493 kPa, Fluid (supercritical or subcritical phases), x1 = 0.2691	68.4
363.24 K, 3613 kPa, Fluid (supercritical or subcritical phases), x1 = 0.2691	72.3
363.24 K, 3752 kPa, Fluid (supercritical or subcritical phases), x1 = 0.2691	76.3
363.24 K, 3878 kPa, Fluid (supercritical or subcritical phases), x1 = 0.2691	80.7
363.24 K, 3964 kPa, Fluid (supercritical or subcritical phases), x1 = 0.2691	84.5
363.24 K, 4056 kPa, Fluid (supercritical or subcritical phases), x1 = 0.2691	88.4
363.24 K, 4156 kPa, Fluid (supercritical or subcritical phases), x1 = 0.2691	92.4
363.24 K, 4237 kPa, Fluid (supercritical or subcritical phases), x1 = 0.2691	96.3
363.24 K, 4354 kPa, Fluid (supercritical or subcritical phases), x1 = 0.2691	102.5
363.24 K, 4468 kPa, Fluid (supercritical or subcritical phases), x1 = 0.2691	108.5
363.24 K, 4619 kPa, Fluid (supercritical or subcritical phases), x1 = 0.2691	120.8
363.24 K, 4747 kPa, Fluid (supercritical or subcritical phases), x1 = 0.2691	132.2
363.24 K, 4838 kPa, Fluid (supercritical or subcritical phases), x1 = 0.2691	142.5
363.24 K, 4877 kPa, Fluid (supercritical or subcritical phases), x1 = 0.2691	152.9
363.24 K, 4905 kPa, Fluid (supercritical or subcritical phases), x1 = 0.2691	166.8
363.24 K, 4932 kPa, Fluid (supercritical or subcritical phases), x1 = 0.2691	180.1
363.24 K, 4954 kPa, Fluid (supercritical or subcritical phases), x1 = 0.2691	190.9
363.24 K, 4982 kPa, Fluid (supercritical or subcritical phases), x1 = 0.2691	203.7
363.24 K, 5002 kPa, Fluid (supercritical or subcritical phases), x1 = 0.2691	216
363.24 K, 5021 kPa, Fluid (supercritical or subcritical phases), x1 = 0.2691	229.7
363.24 K, 5043 kPa, Fluid (supercritical or subcritical phases), x1 = 0.2691	241.1
363.24 K, 5101 kPa, Fluid (supercritical or subcritical phases), x1 = 0.2691	254
363.24 K, 5146 kPa, Fluid (supercritical or subcritical phases), x1 = 0.2691	266.2
363.24 K, 5182 kPa, Fluid (supercritical or subcritical phases), x1 = 0.2691	277.5
363.24 K, 5220 kPa, Fluid (supercritical or subcritical phases), x1 = 0.2691	288.7
363.24 K, 5267 kPa, Fluid (supercritical or subcritical phases), x1 = 0.2691	299.6
363.24 K, 5324 kPa, Fluid (supercritical or subcritical phases), x1 = 0.2691	307.2
363.24 K, 5360 kPa, Fluid (supercritical or subcritical phases), x1 = 0.2691	313.4
363.24 K, 5410 kPa, Fluid (supercritical or subcritical phases), x1 = 0.2691	319.7
363.24 K, 5474 kPa, Fluid (supercritical or subcritical phases), x1 = 0.2691	326
363.24 K, 5549 kPa, Fluid (supercritical or subcritical phases), x1 = 0.2691	332.3
363.24 K, 5632 kPa, Fluid (supercritical or subcritical phases), x1 = 0.2691	339.4
363.24 K, 5762 kPa, Fluid (supercritical or subcritical phases), x1 = 0.2691	346.5
363.24 K, 5914 kPa, Fluid (supercritical or subcritical phases), x1 = 0.2691	353.3
363.24 K, 6056 kPa, Fluid (supercritical or subcritical phases), x1 = 0.2691	359.2
363.24 K, 6228 kPa, Fluid (supercritical or subcritical phases), x1 = 0.2691	365.4
363.24 K, 6441 kPa, Fluid (supercritical or subcritical phases), x1 = 0.2691	371.6
363.24 K, 6679 kPa, Fluid (supercritical or subcritical phases), x1 = 0.2691	377.7
363.24 K, 6961 kPa, Fluid (supercritical or subcritical phases), x1 = 0.2691	383.9
363.24 K, 7276 kPa, Fluid (supercritical or subcritical phases), x1 = 0.2691	390
363.24 K, 7639 kPa, Fluid (supercritical or subcritical phases), x1 = 0.2691	396.1
363.24 K, 8055 kPa, Fluid (supercritical or subcritical phases), x1 = 0.2691	402.1
363.24 K, 8511 kPa, Fluid (supercritical or subcritical phases), x1 = 0.2691	408
363.24 K, 9002 kPa, Fluid (supercritical or subcritical phases), x1 = 0.2691	413.7
363.24 K, 9557 kPa, Fluid (supercritical or subcritical phases), x1 = 0.2691	419.4
363.24 K, 10183 kPa, Fluid (supercritical or subcritical phases), x1 = 0.2691	425.2
363.24 K, 10878 kPa, Fluid (supercritical or subcritical phases), x1 = 0.2691	431.1
363.24 K, 11648 kPa, Fluid (supercritical or subcritical phases), x1 = 0.2691	436.9
363.24 K, 12515 kPa, Fluid (supercritical or subcritical phases), x1 = 0.2691	442.7
363.24 K, 13444 kPa, Fluid (supercritical or subcritical phases), x1 = 0.2691	448.5
363.24 K, 14452 kPa, Fluid (supercritical or subcritical phases), x1 = 0.2691	454.1
363.24 K, 15616 kPa, Fluid (supercritical or subcritical phases), x1 = 0.2691	460.1
363.24 K, 16807 kPa, Fluid (supercritical or subcritical phases), x1 = 0.2691	465.7
363.24 K, 18163 kPa, Fluid (supercritical or subcritical phases), x1 = 0.2691	471.5
363.24 K, 19596 kPa, Fluid (supercritical or subcritical phases), x1 = 0.2691	477.1
363.24 K, 20717 kPa, Fluid (supercritical or subcritical phases), x1 = 0.2691	481.2
363.24 K, 21739 kPa, Fluid (supercritical or subcritical phases), x1 = 0.2691	484.7
363.24 K, 22936 kPa, Fluid (supercritical or subcritical phases), x1 = 0.2691	488.7
363.24 K, 24149 kPa, Fluid (supercritical or subcritical phases), x1 = 0.2691	492.4
363.24 K, 25434 kPa, Fluid (supercritical or subcritical phases), x1 = 0.2691	496.2
363.24 K, 26773 kPa, Fluid (supercritical or subcritical phases), x1 = 0.2691	500
363.24 K, 28220 kPa, Fluid (supercritical or subcritical phases), x1 = 0.2691	503.8
363.24 K, 29831 kPa, Fluid (supercritical or subcritical phases), x1 = 0.2691	507.9
363.24 K, 31352 kPa, Fluid (supercritical or subcritical phases), x1 = 0.2691	511.5
363.24 K, 32889 kPa, Fluid (supercritical or subcritical phases), x1 = 0.2691	515
363.24 K, 34710 kPa, Fluid (supercritical or subcritical phases), x1 = 0.2691	519
